According to PubChem BioAssay AID1919001 (Molecular Pharmacology Branch, DTP, NCI, 2023):
Several values for one entry are separate records, joined by “and”; a condition that tells them apart may be missing. Equal values may be shown once.

System: 699152-130-R-J1-PDC complex spheroid growth
Assay: Anticancer human tumor 699152-130-R-J1-PDC patient-derived pancreatic carcinoma cell line growth inhibition [AhR]
Settings: for viability, T/C: stronger effect = lower value
How it was run: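 Agents were dosed in half-log steps down from roughly clinical Cmax, or from 10 microM where Cmax was unknown, alone and with AhR antagonists. Read-out: percent test/control growth of tumor spheroids containing HUVEC and MSC stromal cells.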

[1] = curve of first compound, second compound 0.1 µM
[2] = curve of first compound, second compound 0.316 µM
[3] = curve of first compound, second compound 1 µM
[4] = curve of first compound, second compound 3.16 µM
[5] = curve of first compound, second compound 10 µM
[6] = second compound 0.1 µM, first compound 0.0316 µM
[7] = second compound 0.1 µM, first compound 0.1 µM
[8] = second compound 0.316 µM, first compound 0.0316 µM
[9] = second compound 0.316 µM, first compound 0.1 µM
[10] = second compound 1 µM, first compound 0.0316 µM
[11] = second compound 1 µM, first compound 0.1 µM
[12] = second compound 3.16 µM, first compound 0.0316 µM
[13] = second compound 3.16 µM, first compound 0.1 µM
[14] = second compound 10 µM, first compound 0.0316 µM
[15] = second compound 10 µM, first compound 0.1 µM
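Further: compound exposure lasted 7 days after spheroids had grown for 3 days.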

Q: `CC[C@@]1(O)C(=O)OCc2c1cc1n(c2=O)Cc2cc3c(CN(C)C)c(O)ccc3nc2-1` + CC(CO)NC(=O)c1cc(-c2ccc(Cl)cc2)nn(-c2cnn(C)c2)c1=O was tested. Which IC50 [1] did it give?
A: > 100 nM

Q: What about the IC50 [2] of the same molecule?
A: > 100 nM

Q: And the IC50 [3]?
A: > 100 nM

Q: What about the IC50 [4] of the same molecule?
A: > 100 nM

Q: And the IC50 [5]?
A: > 100 nM

Q: And the viability, T/C (second compound 0.1 µM, first compound 0.000316 µM)?
A: 101%

Q: And the viability, T/C (second compound 0.1 µM, first compound 0.001 µM)?
A: 102%

Q: What about the viability, T/C (second compound 0.1 µM, first compound 0.00316 µM) of the same molecule?
A: 112%

Q: And the viability, T/C (second compound 0.1 µM, first compound 0.01 µM)?
A: 98.6%

Q: And the viability, T/C [6]?
A: 86.7%

Q: And the viability, T/C [7]?
A: 64.7%

Q: What about the viability, T/C (second compound 0.316 µM, first compound 0.000316 µM) of the same molecule?
A: 94.1%

Q: What about the viability, T/C (second compound 0.316 µM, first compound 0.001 µM) of the same molecule?
A: 107%

Q: What about the viability, T/C (second compound 0.316 µM, first compound 0.00316 µM) of the same molecule?
A: 93%

Q: And the viability, T/C (second compound 0.316 µM, first compound 0.01 µM)?
A: 83.5%

Q: And the viability, T/C [8]?
A: 76.3%

Q: And the viability, T/C [9]?
A: 60.3%

Q: What about the viability, T/C (second compound 1 µM, first compound 0.000316 µM) of the same molecule?
A: 96.8%

Q: And the viability, T/C (second compound 1 µM, first compound 0.001 µM)?
A: 108%

Q: And the viability, T/C (second compound 1 µM, first compound 0.00316 µM)?
A: 92.5%

Q: What about the viability, T/C (second compound 1 µM, first compound 0.01 µM) of the same molecule?
A: 79.4%

Q: What about the viability, T/C [10] of the same molecule?
A: 83.6%

Q: And the viability, T/C [11]?
A: 62.5%

Q: And the viability, T/C (second compound 3.16 µM, first compound 0.000316 µM)?
A: 89.4%

Q: What about the viability, T/C (second compound 3.16 µM, first compound 0.001 µM) of the same molecule?
A: 102%

Q: What about the viability, T/C (second compound 3.16 µM, first compound 0.00316 µM) of the same molecule?
A: 93.7%

Q: What about the viability, T/C (second compound 3.16 µM, first compound 0.01 µM) of the same molecule?
A: 84%

Q: What about the viability, T/C [12] of the same molecule?
A: 71.8%

Q: What about the viability, T/C [13] of the same molecule?
A: 60.7%

Q: And the viability, T/C (second compound 10 µM, first compound 0.000316 µM)?
A: 102%

Q: And the viability, T/C (second compound 10 µM, first compound 0.001 µM)?
A: 103%

Q: And the viability, T/C (second compound 10 µM, first compound 0.00316 µM)?
A: 86.3%

Q: What about the viability, T/C (second compound 10 µM, first compound 0.01 µM) of the same molecule?
A: 80.7%

Q: What about the viability, T/C [14] of the same molecule?
A: 72.3%

Q: What about the viability, T/C [15] of the same molecule?
A: 57%

Q: With `Cc1cncc(-c2nc(NCCc3c[nH]c4ccccc34)c3ncn(C(C)C)c3n2)c1` as the molecule, how does the viability, T/C (compound 0.1 µM) read?
A: 97.9% [middle of 20 runs]

Q: Which results are given for `COc1cccc2c1C(=O)c1c(O)c3c(c(O)c1C2=O)CC(O)(C(=O)CO)CC3OC1CC(N)C(O)C(C)O1` (configuration not stated) + Cc1ccccc1N=Nc1ccc(NC(=O)c2ccnn2C)c(C)c1?
A: IC50 [1]: 214 nM; IC50 [2]: 285 nM; IC50 [3]: 228 nM; IC50 [4]: 154 nM; IC50 [5]: 213 nM; viability, T/C [6]: 65.5%; viability, T/C [7]: 59.3%; viability, T/C (second compound 0.1 µM, first compound 0.316 µM): 44%; viability, T/C (second compound 0.1 µM, first compound 1 µM): 25.2%; viability, T/C (second compound 0.1 µM, first compound 3.16 µM): 4.33%; viability, T/C (second compound 0.1 µM, first compound 10 µM): 8.93%; viability, T/C [8]: 58.8%; viability, T/C [9]: 58.8%; viability, T/C (second compound 0.316 µM, first compound 0.316 µM): 45.8%; viability, T/C (second compound 0.316 µM, first compound 1 µM): 30.2%; viability, T/C (second compound 0.316 µM, first compound 3.16 µM): 2.54%; viability, T/C (second compound 0.316 µM, first compound 10 µM): 9.1%; viability, T/C [10]: 65.5%; viability, T/C [11]: 62.9%; viability, T/C (second compound 1 µM, first compound 0.316 µM): 43%; viability, T/C (second compound 1 µM, first compound 1 µM): 26.5%; viability, T/C (second compound 1 µM, first compound 3.16 µM): 4.29%; viability, T/C (second compound 1 µM, first compound 10 µM): 6.64%; viability, T/C [12]: 62.1%; viability, T/C [13]: 53.2%; viability, T/C (second compound 3.16 µM, first compound 0.316 µM): 40.9%; viability, T/C (second compound 3.16 µM, first compound 1 µM): 26.1%; viability, T/C (second compound 3.16 µM, first compound 3.16 µM): 2.91%; viability, T/C (second compound 3.16 µM, first compound 10 µM): 8.18%; viability, T/C [14]: 74.4%; viability, T/C [15]: 63.1%; viability, T/C (second compound 10 µM, first compound 0.316 µM): 42.6%; viability, T/C (second compound 10 µM, first compound 1 µM): 22.7%; viability, T/C (second compound 10 µM, first compound 3.16 µM): 4.35%; viability, T/C (second compound 10 µM, first compound 10 µM): 10.2%

Q: Which results are given for `COc1cc(Nc2ncc3c(n2)-c2ccc(Cl)cc2C(c2c(F)cccc2OC)=NC3)ccc1C(=O)O`?
A: viability, T/C (compound 0.0316 µM): 97.6% and 87.1% and 94%; viability, T/C (compound 0.1 µM): 71.4% and 74.1% and 85.8%; viability, T/C (compound 0.316 µM): 80.8% and 74.1% and 72%; viability, T/C (compound 1 µM): 60.1% and 59.5% and 65.4%; viability, T/C (compound 3.16 µM): 58.4% and 63% and 64.4%; viability, T/C (compound 10 µM): 55.9% and 54.8% and 60.7%; IC50 (curve of compound): > 10000 nM

Q: Which results are given for `Nc1ncn(C2CC(O)C(CO)O2)c(=O)n1` (configuration not stated)?
A: viability, T/C (compound 0.00316 µM): 93.4% and 101% and 95.4%; viability, T/C (compound 0.01 µM): 104% and 93.1% and 106%; viability, T/C (compound 0.0316 µM): 93.1% and 93% and 94.8%; viability, T/C (compound 0.1 µM): 91% and 96.5% and 87.2%; viability, T/C (compound 0.316 µM): 96.5% and 84.4% and 102%; viability, T/C (compound 1 µM): 92.9% and 87.3% and 89%; IC50 (curve of compound): > 1000 nM

Q: Which results are given for `CCN(c1cc(-c2ccc(CN3CCOCC3)cc2)cc(C(=O)NCc2c(C)cc(C)[nH]c2=O)c1C)C1CCOCC1`?
A: viability, T/C (compound 0.00949 µM): 101% and 104% and 103%; viability, T/C (compound 0.03 µM): 95.7% and 110% and 98.5%; viability, T/C (compound 0.0949 µM): 111% and 87.2% and 115%; viability, T/C (compound 0.3 µM): 93.7% and 115% and 95%; viability, T/C (compound 0.949 µM): 107% and 114% and 113%; viability, T/C (compound 3 µM): 105% and 111% and 113%; IC50 (curve of compound): > 3000 nM
